Measurements from patent US20260242789A1 (priority 2023, published 2026).
Counter-ions that a name gives are not always drawn. Like-named read-outs stand apart in the source and are kept apart here.

Experiments:
[1] = target: T1, SAMD9 tRNase:tRNA complex (Homo sapiens, UniProt Q5K651); assay type: binding
T1 construct: The recombinant SAMD9^134-385 or SAMD9^156-385 protein was expressed and purified from E. coli; SUMO (cleaved yes); 6xHis (cleaved yes); made in house; host or cells: E. coli
T1 sequence (Q5K651 134-385): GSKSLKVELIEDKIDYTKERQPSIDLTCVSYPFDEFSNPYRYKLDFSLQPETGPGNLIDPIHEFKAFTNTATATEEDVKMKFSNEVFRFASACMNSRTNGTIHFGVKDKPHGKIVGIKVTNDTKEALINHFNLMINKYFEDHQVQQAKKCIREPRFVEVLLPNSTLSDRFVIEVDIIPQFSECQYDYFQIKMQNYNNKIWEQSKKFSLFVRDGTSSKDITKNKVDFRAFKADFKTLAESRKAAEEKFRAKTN

[2] = target: T2, SAMD9^134-385 protein (SAMD9 tRNase) (Homo sapiens, UniProt Q5K651); assay type: biochemical; conditions: at 2×IC50 concentration, two hours of reaction
T2 construct: The recombinant SAMD9^134-385 or SAMD9^156-385 protein was expressed and purified from E. coli; SUMO (cleaved yes); 6xHis (cleaved yes); made in house; host or cells: E. coli
T2 sequence (Q5K651 134-385): T1 sequence (Q5K651 134-385)

[3] = target: T2, SAMD9^134-385 protein (SAMD9 tRNase); test: biochemical

Molecule	disruption of the SAMD9 tRNase:tRNA complex ([1]; 2:1 molar ratio)	disruption of the SAMD9 tRNase:tRNA complex ([1]; 20:1 molar ratio)	cleavage of yeast tRNA by SAMD9 tRNase [2]	IC50 [3] [nM]	disruption of the SAMD9 tRNase:tRNA complex ([1]; 100:1 molar ratio)	IC50 ([3]; dose response studies, cleavage of Phe17-Fret by SAMD9 tRNase, read-out: IC50) [nM]
Cc1cc(-c2ccc(/N=N/c3ccc4c(S(=O)(=O)O)cc(S(=O)(=O)O)c(N)c4c3O)c(C)c2)ccc1/N=N/c1ccc2c(S(=O)(=O)O)cc(S(=O)(=O)O)c(N)c2c1O [Evans Blue]	disrupted the complex	completely disrupted	blocked	1200	–	–
NCCOc1cc(C(=O)Nc2cc(OCCN)c3ccccc3n2)nc(C(=O)Nc2cc(OCCN)c3ccccc3n2)c1 [Pyridostatin TFA]	–	–	partially reduced	7800	–	–
Salvianolic acid B	–	minor effect	blocked	–	did not completely disrupt	3000
